Consider five molecules from US20130012440A1, “PREVENTIVE AND/OR THERAPEUTIC AND/OR AGGRAVATION SUPPRESSING AGENT FOR HUMAN ARTHRITIS DEFORMANS” (ASAHI KASEI PHARMA CORPORATION, priority 2009, published 2013).

Marks after values point to notes of the source that are not given here.

Data set [1] relates to spontaneous-onset guinea pig model. The note with it: cited from earlier work.
For data set [2], the system named is knee osteoarthritis patients. The note with it: cited from earlier work.
In data set [3] the test system is hip osteoarthritis. To be noted: systematic review of clinical results; cited from earlier work.
The subject of data set [4] is mice subjected to orchiectomy. To be noted: cited from earlier work.
Data set [5] deals with rats subjected to ovariectomy. The note with it: cited from earlier work.
The subject of data set [6] is monkeys subjected to ovariectomy. To be noted: cited from earlier work.
Data set [7] deals with rabbit model of meniscus damage. The note with it: cited from earlier work.
Data set [8] has as its system cartilage cells acquired from knee osteoarthritis patients. The note with it: cited from earlier work.
For data set [9], the system named is rabbit model of anterior cruciate ligament transection. The note with it: cited from earlier work.
For data set [10], the system named is female patients diagnosed with primary osteoporosis. The data set can be described thus: Test Example 2: onset and exacerbation of knee osteoarthritis during once-weekly subdermal administration (placebo vs 200-unit group). In kind it is in vivo, human. The protocol: Two tablets of a calcium agent (containing 500 mg of precipitated calcium carbonate (200 mg of calcium) per tablet) were further administered orally once per day to the placebo group and the 200-unit administration group.
(§1) During the course of administration, both groups were prohibited from concurrent usage of calcitonin formulations, activated vitamin D3 formulations, vitamin K formulations, ipriflavone formulations, formulations of salts of bisphosphonic acid, estrogen formulations, anabolic-hormone formulations, doctor-prescribed calcium formulations (excepting the aforedescribed calcium agent administered as two tablets per day), and other medicinal agents thought to exert an effect on bone metabolism.
(§2) The attending physicians evaluated knee osteoarthritis according to the diagnostic criteria of each medical treatment facility on the basis of, e.g., the chief complaints of the patient, such as knee-joint pain and knee pain.

Data set [11] relates to rats. Put plainly: Fatal toxicity after administration to rats. The data set is classed as in vivo. To be noted: 3300 or 2000 units/kg (body weight), intravenous, intramuscular, subdermal, or oral routes. From the text: (§3) The aforedescribed PTH or PTH derivative has extremely low toxicity.
Data set [12] deals with mice. Put plainly: Fatal toxicity after administration to mice. In kind it is in vivo. The note with it: 3300 or 2000 units/kg (body weight), intravenous, intramuscular, subdermal, or oral routes.
Excerpt: as §3

For data set [13], the system named is female patients diagnosed with primary osteoporosis. The data set can be described thus: Test Example 1: onset of knee osteoarthritis during once-weekly subdermal administration (5- vs 100-unit groups). In kind it is in vivo, human. To be noted: for Frequency of onset (%) of knee osteoarthritis / Number of cases of onset of knee osteoarthritis: subdermal once per week. The protocol: (§4) Female patients diagnosed with primary osteoporosis on the basis of the diagnostic criteria of Non-Patent Document 42 were given intermittent subdermal administrations of 5 or 100 units of an acetate salt of human PTH (1-34), which was prepared using the method of Takai (Patent Documents 4 and 5, Non-Patent Document 43), once per week (accordingly, there was a 5-unit administration group and a 100-unit administration group). The measured activity of the acetate salt of human PTH (1-34) was 3300 units/mg in the present test example according to the article of Marcus et al. (Non-Patent Document 44).
An injectable formulation containing 5 or 100 units per vial of the acetate salt of human PTH (1-34) was dissolved into 1 mL of normal saline solution at the time of usage, and 1 mL/person was subdermally administered to the 5-unit and 100-unit groups. Two tablets of a calcium agent (containing 500 mg of precipitated calcium carbonate (200 mg of calcium) per tablet) were further administered orally once per day to the 5-unit and 100-unit groups.
as §1, §2
The frequency of onset of knee osteoarthritis in the 5-unit administration group in the present test example was also compared to the natural frequency of onset. The value used for the natural frequency of onset resulted from dividing the 174,000 female arthritis patients of ages 70 through 74 throughout the country in the Japanese Nationwide Patient Survey (2005, edited by the Statistics and Information Department of the Minister's Secretariat of the Ministry of Health, Labour and Welfare, [published by] the Health and Welfare Statistics Association) by the population of 3,597,754 women of the same age throughout the country according to the Statistics Bureau of the Ministry of Internal Affairs and Communications.

Data set [14] concerns adenyl cyclase from rat kidney. The data set can be described thus: Activity measurement according to the article of Marcus et al. In kind it is biochemical. The note with it: method of Marcus et al. (Non-Patent Document 44). The protocol: [Non-Patent Document 44] Marcus, R et al. “Bioassay of parathyroid hormone in vitro with a stable preparation of adenyl cyclase from rat kidney” Endocrinology 85: 801-810, 1969. […]
as §4

The test system of data set [15] is rat model of osteoarthritis. The note with it: cited from earlier work.
[16] abbreviates: listed as printed as 100-unit administration group, subdermal once per week.
The mark [17] stands for this setting: 5-unit administration group, 165 cases.

For the molecule `O=P(O)(O)C(O)(Cc1cccnc1)P(=O)(O)O` [risedronate], the “Effect of limiting cartilage degeneration” value in [1] is given as “found to have an effect of limiting cartilage degeneration”. Moreover, the Medicinal effects result in data set [2] (clinical tests on knee osteoarthritis patients) is given as “medicinal effects were not found”.

As for Estrogen, the “Effects of estrogen therapy” value in data set [3] is reported as “has not been found to have clear effects”. Besides, the “Risk of hip osteoarthritis” value in data set [3] was “increase the risk of hip osteoarthritis”. For the same molecule, the “Activity for improving cartilage degeneration” value in data set [4], in data set [5] and in data set [6] was “activity for improving cartilage degeneration” each time.

As to Hyaluronate, the Accelerating healing result in [7] is “accelerating healing”. In data set [8], the “Limiting apoptosis of cartilage cells” value is recorded as “activity for limiting apoptosis of cartilage cells” and the “Limiting the production of enzymes that degrade the cartilage matrix” value is given as “showed activity for limiting the production of enzymes that degrade the cartilage matrix”. Moreover, in data set [9], the “Activity for limiting disease progression” value is recorded as “activity for limiting disease progression”. For the same molecule, in data set [2] (meta-analyses of clinical tests on knee osteoarthritis patients), the “Efficacy as a medicine for limiting the progression of the disease” value is listed as “in doubt”.

With human PTH (1-34), in data set [10] (200 units once per week), the “Frequency of onset of knee osteoarthritis, 200-unit group compared with placebo group” value is “less than that in the placebo group”. In addition, the “Onset and exacerbation of knee osteoarthritis in osteoporosis patients” value in data set [10] (administration to osteoporosis patients) is “clearly and markedly limits the onset and exacerbation of knee osteoarthritis”. Further, in data set [10] (setting [16]), the “Exacerbation of knee osteoarthritis: Number of cases of exacerbation” value is listed as 4, the “Onset of knee osteoarthritis: Frequency of onset (%)” value was found to be 5.4% and the “Onset of knee osteoarthritis: Number of cases of onset” value came out at 15. Also, the Fatal toxicity result in data set [11] is on record as “never observed”. Also, the Fatal toxicity entry in data set [12] is given as “never observed”. Moreover, in data set [13] (setting [17]), the “Frequency of onset (%) of knee osteoarthritis” value is reported as 6.67% and the “Number of cases of onset of knee osteoarthritis” value is 11. Further, in [13] (5 units once per week, 6.67% vs natural 4.84%), the “Frequency of onset of knee osteoarthritis, 5-unit group compared with natural frequency of onset” value is “statistically significant difference was not found”. The “Number of cases of onset of knee osteoarthritis” value in data set [13] (100-unit administration group, 314 cases) is reported as 4. In addition, the “Frequency of onset (%) of knee osteoarthritis” value in data set [13] (100-unit administration group, 314 cases, p < 0.05 vs 5-unit group) is listed as 1.27* %. Further, the “Frequency of onset of knee osteoarthritis, 100-unit group compared with 5-unit group” value in data set [13] (100 units once per week vs 5 units, p<0.05) was “significantly less than that in the 5-unit administration group”. Also, the “Onset of knee osteoarthritis, 100-unit group compared with natural onset” value in [13] (100 units once per week, natural frequency of onset 4.84%) is “significantly more limited onset of knee osteoarthritis than in the case of natural onset”. Also, the Measured activity in [14] is given as 3300 units/mg.

B1: parathyroid hormone (protein, UniProt P01270 32-115, looked up)
Parathyroid hormone: SVSEIQLMHNLGKHLNSMERVEWLRKKLQDVHNFVALGAPLAPRDAGSQRPRKKEDNVLVESHEKSLGEADKADVNVLTKAKSQ
modifications: Parathyroid hormone
With B1, in data set [15], the Therapeutic effect result is listed as “a slight therapeutic effect”.
